Measurements: BindingDB's records for doi:10.1021/cb400526n (Academy of Sciences of The Czech Republic, 2013)

Target: Aldo-keto reductase family 1 member B1 (Homo sapiens, UniProt P15121)
Experiment: IC50 Activity Assays
Conditions: pH 7; 25 °C
Procedure: The final reaction volume was 500uL per reaction. All compounds were dissolved in dimethyl sulphoxide, and the corresponding solution was added to the cell and incubated for 5 min at 25 degrees Celsius prior to the addition of the substrate. The reaction was initiated by the addition of 1mM glyceraldehyde, and the decrease in optical density at 340nm was monitored for 3 min at 25 degrees Celsius in a UV-vis spectrophotometer.

| SMILES | IC50 |
| --- | --- |
| O=C(O)COc1cc(Cl)ccc1C(=O)NCc1ccc(Br)cc1F [IDD388] | 400 nM |
| O=C(O)COc1cc(Cl)ccc1C(=O)NCc1ccc(Br)cc1 [MK181] | 710 nM |
| O=C(O)COc1cc(Cl)ccc1C(=O)NCc1ccc(I)cc1 [MK257] | 1900 nM |
| O=C(O)COc1cc(Cl)ccc1C(=O)NCc1ccc(I)cc1F [MK315] | 190 nM |
| O=C(O)COc1cc(Cl)ccc1C(=O)NCc1c(F)c(F)c(Br)c(F)c1F [MK319] | 300 nM |
| O=C(O)COc1cc(Cl)ccc1C(=O)NCc1c(F)cc(Br)cc1F [MK408] | 1190 nM |
| O=C(O)COc1cc(Cl)ccc1C(=O)NCc1c(F)cc(I)cc1F [MK409] | 1360 nM |
